# Data from patent US20150148304A1, “Novel Peptides and Analogs for Use in the Treatment of Macrophage Activation Syndrome” (Soligenix, Inc., priority 2013, published 2015).
# No end group written: not given here.
# Legend:
# [1] = target: Sequestosome-1, also known as p62 (Homo sapiens, UniProt Q13501); details: cited from earlier work
# [2] = non-GLP pilot toxicology study in nonhuman primates; format: in vivo, cynomolgus monkeys; details: 90, 180 and 220 mg/kg; NHP; resolved within a few minutes
# Method: (§1) Two pilot and 2 definitive repeat-dose toxicity studies were conducted with RIVPA (SEQ ID NO. 5) in mice and cynomolgus monkeys using the intravenous (IV; slow bolus) route of administration.
# (§2) These resolved within a few minutes without detectable residual effects.
# [3] = non-GLP pilot toxicology study, single IV administration, mouse; details: in vivo, IV injection over 30 to 60 seconds, actual dose, read-out: maximum tolerated dose (MTD) of a single administration
# Method: as §1, §2
# whole blood = test: ex vivo LPS stimulation of whole blood from Phase 1 subjects, cytokine/chemokine Activity Ratios; format: cell-based, human; details: dose range 0.15-2 mg/kg; 4 hours in vitro LPS stimulation of whole blood
# Method: In ex vivo investigations using blood samples obtained during the Phase 1 healthy human volunteer study, a number of cytokine and chemokine analytes were quantified after 4 hours of in vitro stimulation of whole blood with LPS. The inter-individual variability in analyte levels was larger than any variation in time or response to RIVPA (SEQ ID NO. 5) or placebo administration and the data were therefore self-normalized using the individual pre-dose analyte level to standardize all responses for each individual subject (the Activity Ratio). RIVPA (SEQ ID NO. 5) effects on the analyte Activity Ratios (ARs) were neither constant throughout time, nor linearly dose responsive.
# [4] = distribution of radiolabelled RIVPA to the mouse CNS; format: in vivo; details: dose levels of 20 or 90 mg/kg
# Method: No effects of RIVPA (SEQ ID NO. 5) have been observed on the central nervous system (CNS) in any study at any dose level and little or no radiolabelled RIVPA (SEQ ID NO. 5) was found in the mouse CNS at dose levels of either 20 or 90 mg/kg.
# mouse normal blood cells = test: proliferation of normal blood cells in vitro (mouse); format: cell-based
# [5] = acute toxicity (respiratory depression) dose levels, NHP; format: in vivo, cynomologus monkey
# Method: (§3) The observed respiratory depression occurred at different dose levels in different species, and was not predicted by allometric scaling. In particular, the mouse appeared to be the most sensitive species with acute toxicity occurring rarely at 60 mg/kg (HED: ˜5 mg/kg) and commonly at 90 mg/kg (HED: ˜7 mg/kg). In contrast in NHP (cynomologus monkey), acute toxicity occurred occasionally at 160 mg/kg (HED: ˜50 mg/kg) and consistently at 240 mg/kg (HED: ˜78 mg/kg).
# [6] = cardiovascular (CV)/pulmonary safety pharmacology study; format: in vivo, cynomolgus monkey
# From the text: In 1 animal, the high dose caused a marked reduction in respiratory rate followed by bradycardia, hypotension and death.
# In summary, the major toxicological finding was an acute-onset respiratory depression, accompanied by labored breathing, recumbency and transient decreased activity.
# [7] = GLP 14-day repeat-dose IV toxicity study in mice; format: in vivo, mouse
# Method: as §1
# The safety of multiple daily injections of RIVPA (SEQ ID NO. 5) has also been evaluated in GLP studies in mice and cynomolgus monkeys. In mouse, doses of 20, 60, or 90 mg/kg/day were given IV for 14 days. […] In survivors of all groups, there was no evidence of toxicity in any organ or abnormal biochemistry or hematology.
# In the latter study, no effect on T-cell, B-cell or NK-cell counts was observed after 14 days of intravenous RIVPA (SEQ ID NO. 5) dosing in the NHP. […] Collectively, there is no indication of a potential for RIVPA (SEQ ID NO. 5) to cause immunotoxicity or non-specific immune activation. No hyperactivation or suppression of adaptive immune responses, or other impact on the phenotypes of cells associated with adaptive immunity, has been detected following RIVPA (SEQ ID NO. 5) administration.
# [8] = acute toxicity (respiratory depression) dose levels, mouse; format: in vivo
# Method: as §3
# [9] = test system: primary human leukemia cells; test: proliferation of primary leukemia cells in vitro; format: cell-based
# [10] = single IV doses of 20 or 80 mg/kg
# Sequence of Sequestosome-1, also known as p62 (Q13501 whole entry): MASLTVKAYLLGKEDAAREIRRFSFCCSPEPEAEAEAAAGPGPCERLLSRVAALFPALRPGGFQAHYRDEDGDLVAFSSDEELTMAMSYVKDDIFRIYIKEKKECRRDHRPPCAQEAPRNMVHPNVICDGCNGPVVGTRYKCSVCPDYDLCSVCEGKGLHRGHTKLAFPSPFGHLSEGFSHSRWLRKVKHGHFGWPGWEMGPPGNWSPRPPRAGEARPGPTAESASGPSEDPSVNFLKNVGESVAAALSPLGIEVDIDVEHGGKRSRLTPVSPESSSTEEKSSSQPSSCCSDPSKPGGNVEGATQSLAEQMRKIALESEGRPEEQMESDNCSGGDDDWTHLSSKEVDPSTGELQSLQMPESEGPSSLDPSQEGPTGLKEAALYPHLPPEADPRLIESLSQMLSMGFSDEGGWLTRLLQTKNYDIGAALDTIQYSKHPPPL
substance,measurement,setting,value
"RIVPA-NH2 [RIVPA, L-arginyl-L-isoleucyl-L-valyl-L-prolyl-L-alanine-amide]",binding to p62,[1],binds
same,clinical signs during and shortly after dosing,[2],mild clinical signs
same,MTD,[3],88 mg/kg
same,"anti-inflammatory status (higher TNF RII and IL-1ra, lower TNFα and IL-1β)",whole blood,evidence of an increase
same,radiolabelled RIVPA found in the mouse CNS,[4],little or no
same,proliferation of mouse normal blood cells,mouse normal blood cells,did not promote the proliferation
same,HED of dose at which acute toxicity occurs occasionally,[5]; NHP 160 mg/kg,~50 mg/kg
same,HED of dose at which acute toxicity occurs consistently,[5]; NHP 240 mg/kg,~78 mg/kg
same,clinical signs at 220 mg/kg,"[6]; 220 mg/kg, death in 1 animal","transient, severe clinical signs"
same,cardiac toxicity or QT prolongation,[6]; nonhuman primates,no cardiac toxicity or QT prolongation
same,clinical signs at 80 mg/kg,"[6]; single IV 80 mg/kg, during dosing",transient drooping eye lids and prostration
same,cardiovascular effects and ECG parameters,[6]; [10],no cardiovascular effects or changes in electrocardiogram (ECG) parameters
same,respiratory effects,[6]; [10],No respiratory effects were observed
same,adverse effects at 20 mg/kg,"[7]; 20 mg/kg/day IV for 14 days, mouse",No adverse effects were observed
same,mortality at 60 mg/kg,"[7]; 60 mg/kg/day IV for 14 days, mouse",Lethality was also observed in 1 animal
same,mortality at high dose,"[7]; 90 mg/kg/day IV for 14 days, mouse",Deaths were observed
same,"immune-related organ weights, histopathology, hematology and clinical chemistry",[7]; mouse 14-day toxicity study,no changes were observed
same,HED of dose at which acute toxicity occurs rarely,[8]; mouse 60 mg/kg,~5 mg/kg
same,HED of dose at which acute toxicity occurs commonly,[8]; mouse 90 mg/kg,~7 mg/kg
same,proliferation of primary human leukemia cells,[9],did not promote the proliferation
